According to US4000281A, “Pyrazole derivatives” (priority 1971, dated 1976):
≈ marks a conversion by molar mass, not a printed value. Where two headings read alike, the source gives them in different places.

Columns and labels:
Influenza virus Swine A = type: in vivo, mice; conditions: 500 mg/kg IP
Influenza viruses = experiment: Mouse-Survival Test (Test No. 1), Influenza virus strain not given; type: in vivo, mice; conditions: unidentified influenza virus, 360 h
[1] = test system: rhinovirus type 39 (strain 209); experiment: Gradient plate plaque-reduction technique in HeLa cells, rhinovirus type 39; type: cell-based, human; set-up: key: +: active
Procedure: (§1) A further series of tests was performed in which the inhibitory concentrations of 3-(4-pyridyl)-4-(2-hydroxyphenyl)-5-ethylpyrazole against various human types of rhinovirus were determined by the gradient plate plaque-reduction technique. Cultures of HeLa cancer cells were used of which two were prepared for each test. One culture was treated with the above compound which was applied in gradient while the other culture served as control. Both cultures were then infected with a human type of rhinovirus. The inhibitory concentration was determined by measuring the zone of inhibition on the cellsheet. Six types of rhinovirus were employed and the following results registered.

[2] = test system: rhinovirus type 27 (strain Cor. 28); experiment: Gradient plate plaque-reduction technique in HeLa cells, rhinovirus type 27; type: cell-based, human; set-up: key to ACTIVITY: +: active
Procedure: as §1

[3] = test system: rhinovirus type 50 (strain A2 No.58); experiment: Gradient plate plaque-reduction technique in HeLa cells, rhinovirus type 50; type: cell-based, human; set-up: key: +: active
Procedure: as §1

Herpes = experiment: Herpes-induced keratitis in the rabbit eye; type: in vivo; conditions: local use, 2, 1 and 0.5%
Procedure: Another test was carried out with this same compound in order to evaluate its action against Herpes-induced keratitis in the rabbit eye.

[4] = test system: rhinovirus type 44 (strain F01 3744); experiment: Gradient plate plaque-reduction technique in HeLa cells, rhinovirus type 44; type: cell-based, human; set-up: key to ACTIVITY: +: active; -: inactive
Procedure: as §1

[5] = test system: rhinovirus type 3 (prototype); experiment: Inhibition of rhinovirus cytopathogenic effect in human embryonic lung cultures, type 3; type: cell-based; conditions: 50 and 75 μgm/ml
Procedure: (§2) Other tests were carried out to determine the inhibitory effect of 3-(4-pyridyl)-4-(2-hydroxyphenyl)-5-ethylpyrazole on various types of rhinovirus.
(§3) In each test two cultures of human embryonic lung were prepared of which one was treated with the above compound while the other served as control. The cultures were then infected with a strain of rhinovirus. The compound was used in concentrations of 50 and 75 μgm/ml and was considered to be active if the cytopathogenic effect of the rhinovirus was reduced by at least 75% as compared to the control culture. This cytopathogenic effect was determined by counting the number of plaques formed by destroyed cells.
(§4) Seven human types of rhinovirus were employed and the following results registered: […]

[6] = test system: rhinovirus type 5 (prototype); experiment: Inhibition of rhinovirus cytopathogenic effect in human embryonic lung cultures, type 5; type: cell-based; conditions: 50 and 75 μgm/ml
Procedure: as §2, §3, §4

Influenza virus = type: in vivo, mice; conditions: for S.I. / Survival Percent / MDD (Mean Day of Death): intranasal 10% suspension, 25 multiples of LD50; for MDD (Mean Day of Death): virus alone 6.20
Influenza Jap 305 = experiment: 48-Hour Mouse Test (Test No. 2), Influenza Jap 305; type: in vivo, mice; conditions: read-out: Log Reductions (EID50) as compared with controls
Influenza virus Jap 305 = experiment: Mouse-Survival Test (Test No. 1), Influenza Jap 305; type: in vivo, mice; conditions: for S.I.: significant if >1.24
[7] = test system: rhinovirus type 14 (prototype); experiment: Inhibition of rhinovirus cytopathogenic effect in human embryonic lung cultures, type 14; type: cell-based; conditions: 50 and 75 μgm/ml
Procedure: as §2, §3, §4

Influenza Swine A = experiment: animal or person; type: in vivo, mice; conditions: in Mus musculus, 48 h, read-out: Log Reductions (EID50) as compared with controls
[8] = test system: rhinovirus type 14 (strain 1059); experiment: Gradient plate plaque-reduction technique in HeLa cells, rhinovirus type 14; type: cell-based, human; set-up: key to ACTIVITY: +: active; -: inactive
Procedure: as §1

[9] = test system: rhinovirus type 8 (prototype); experiment: Inhibition of rhinovirus cytopathogenic effect in human embryonic lung cultures, type 8; type: cell-based; conditions: 50 and 75 μgm/ml
Procedure: as §2, §3, §4

[10] = test system: rhinovirus type 6 (SF1349); experiment: Inhibition of rhinovirus cytopathogenic effect in human embryonic lung cultures, type 6; type: cell-based; conditions: 50 and 75 μgm/ml
Procedure: as §2, §3, §4

[11] = test system: rhinovirus type 9 (prototype); experiment: Inhibition of rhinovirus cytopathogenic effect in human embryonic lung cultures, type 9; type: cell-based; conditions: 50 and 75 μgm/ml
Procedure: as §2, §3, §4

[12] = test system: Influenza virus Maryland B; experiment: Mouse-Survival Test (Test No. 1), Influenza Maryland B; type: in vivo, mice; conditions: for Survival Percent: virus dose 79 multiples of LD50; for S.I.: virus dose 79 multiples of LD50, significant if >1.24
Influenza PR8 = experiment: 48-Hour Mouse Test (Test No. 2), Influenza PR8; type: in vivo, mice; conditions: virus dose not ascertained, read-out: Log Reductions (EID50) as compared with controls
[13] = test system: rhinovirus type 55 (strain Wis 315E); experiment: Gradient plate plaque-reduction technique in HeLa cells, rhinovirus type 55; type: cell-based, human; set-up: key to ACTIVITY: +: active
Procedure: as §1

Herpes Simplex [14] = experiment: microbe, parasite or virus in culture; type: cell-based, rabbit; conditions: Oryctolagus cuniculus, 96 h; dose of 250 μg; tissue first infected, compound in overlay; 50% considered significant; read-out: plaque-reduction
Herpes Simplex [15] = experiment: microbe, parasite or virus in culture; type: cell-based, rabbit; conditions: Oryctolagus cuniculus, 96 h; dose of 250 μg; virus pretreated with compound one hour; 50% considered significant; read-out: plaque-reduction
[16] = ip, read-out: Survival Index (S.I.)
[17] = Enterovirus, read-out: MINIMUM INHIBITORY Concentration
[18] = Jap 305, 5 mg/kg IP, virus dose 20 multiples of LD50
[19] = Jap 305, 50 mg/kg IP, virus dose 32 multiples of LD50
[20] = Jap 305, 50 mg/kg PO, virus dose 3.2 multiples of LD50
[21] = Jap 305, 500 mg/kg IP, virus dose 32 multiples of LD50
[22] = Jap 305, 500 mg/kg PO, virus dose 3.2 multiples of LD50

Structure (SMILES): CCc1[nH]nc(-c2ccncc2)c1-c1ccccc1O [Compound A, 3-(4-pyridyl)-4-(2-hydroxyphenyl)-5-ethylpyrazole]
- Survival Percent (Influenza virus Swine A; virus dose 14 multiples of LD50): 50%
- S.I. (Influenza virus Swine A; virus dose 14 multiples of LD50, significant if >1.24): 1.52
- response vs control in vivo at 50 mg/kg (Influenza viruses; [16]): 137%
- response vs control in vivo at 500 mg/kg (Influenza viruses; [16]): 171%
- responders at 50 mg/kg (Influenza viruses; ip, read-out: Survival Percent): 0%
- responders at 500 mg/kg (Influenza viruses; ip, read-out: Survival Percent): 37.5%
- response vs control in vivo at 500 mg/kg (Influenza viruses; po, read-out: Survival Index (S.I.)): 171%
- responders at 500 mg/kg (Influenza viruses; po, read-out: Survival Percent): 33.3%
- ACTIVITY [1]: +
- ACTIVITY [2]: +
- MIC [2, 17]: 15 to 16 µg/mL (≈ 56.5 to 60.3 µM)
- ACTIVITY [3]: +
- formation of geographic keratitic lesions as compared to infected control animals (Herpes): inhibited the formation of geographic keratitic lesions
- ACTIVITY [4]: -
- MIC [4, 17]: 30 µg/mL (≈ 113 µM)
- ACTIVITY [5]: + (active)
- ACTIVITY [6]: + (active)
- S.I. (Influenza virus; 30 min. before infection): 1.90
- Survival Percent (Influenza virus; 30 min. before infection): 40%
- MDD (Mean Day of Death) (Influenza virus; 30 min. before infection): 11.80 days
- S.I. (Influenza virus; 2 hr. before infection): 2.07
- Survival Percent (Influenza virus; 2 hr. before infection): 70%
- MDD (Mean Day of Death) (Influenza virus; 2 hr. before infection): 12.80 days
- S.I. (Influenza virus; 4 hr. before infection): 1.88
- Survival Percent (Influenza virus; 4 hr. before infection): 60%
- MDD (Mean Day of Death) (Influenza virus; 4 hr. before infection): 11.70 days
- S.I. (Influenza virus; 6 hr. before infection): 1.90
- Survival Percent (Influenza virus; 6 hr. before infection): 50%
- MDD (Mean Day of Death) (Influenza virus; 6 hr. before infection): 11.80 days
- persistence of the effect: differences between times of administration (Influenza virus; mouse, in vivo): no significant differences
- protective effect (Influenza virus; mouse, in vivo): definite protective effect at all times of administration
- survival period of the treated animals that did die, relative to controls (Influenza virus; mouse, in vivo): approximately twice that of the controls
- log reduction at 50 mg/kg (Influenza Jap 305; ip): 1.53
- log reduction at 5 mg/kg (Influenza Jap 305; po): 2
- log reduction at 50 mg/kg (Influenza Jap 305; po): 2.7
- log reduction at 500 mg/kg (Influenza Jap 305; po): 2.5
- Survival Percent (Influenza virus Jap 305; [18]): 20%
- S.I. (Influenza virus Jap 305; [18]): 1.34
- Survival Percent (Influenza virus Jap 305; [19]): 10%
- S.I. (Influenza virus Jap 305; [19]): 1.34
- Survival Percent (Influenza virus Jap 305; [20]): 60%
- S.I. (Influenza virus Jap 305; [20]): 1.43
- Survival Percent (Influenza virus Jap 305; [21]): 60%
- S.I. (Influenza virus Jap 305; [21]): 2.04
- Survival Percent (Influenza virus Jap 305; [22]): 66%
- S.I. (Influenza virus Jap 305; [22]): 1.43
- ACTIVITY [7]: + (active)
- log reduction at 50 mg/kg (Influenza Swine A; ip): 1
- log reduction at 500 mg/kg (Influenza Swine A; ip): 1.8
- log reduction at 5 mg/kg (Influenza Swine A; po): 1.1
- log reduction at 50 mg/kg (Influenza Swine A; po): 1.4
- ACTIVITY [8]: -
- MIC [8, 17]: 30 µg/mL (≈ 113 µM)
- ACTIVITY [9]: + (active)
- ACTIVITY [10]: + (active)
- ACTIVITY [11]: + (active)
- Survival Percent ([12]; 500 mg/kg IP): 10%
- S.I. ([12]; 500 mg/kg IP): 1.47
- Survival Percent ([12]; 500 mg/kg PO): 12%
- S.I. ([12]; 500 mg/kg PO): 1.52
- log reduction at 5 mg/kg (Influenza PR8; PR8, 5 mg/kg IP): 1.41
- log reduction at 50 mg/kg (Influenza PR8; PR8, 50 mg/kg IP): 1.69
- log reduction at 50 mg/kg (Influenza PR8; PR8, 50 mg/kg PO): 1.21
- log reduction at 500 mg/kg (Influenza PR8; PR8, 500 mg/kg IP): 1.87
- log reduction at 500 mg/kg (Influenza PR8; PR8, 500 mg/kg PO): 1.07
- ACTIVITY [13]: +
- MIC [13, 17]: 20 µg/mL (≈ 75.4 µM)
- inhibition at 250 µg (Herpes Simplex [14]): 100%
- inhibition at 250 µg (Herpes Simplex [15]): 60%
